The values that follow come from article PMC12584615, “Degradation of 2,4-D by plant growth-promoting Cupriavidus sp. DSPFs: role in mitigating herbicide toxicity in soil and enhancing crop production” (Microbiology Spectrum, 2025).

Test [1] deals with 2,4-dichlorophenol-6-monooxygenase from Cupriavidus sp. strain DSPFs (Cupriavidus sp. strain DSPFs). The experiment in a line: SEC; ENrich SEC 650 column (24 mL) in 50 mM potassium phosphate buffer pH 7.5, 4°C; calibrated with mass markers from 12.4 to 669 kDa; native mass from log(mol mass) versus Ve/V0, compared with the subunit mass from SDS-PAGE.
Test [2] has as its system T1, 2,4-dichlorophenol-6-monooxygenase (24DCPM).
T1 construct: gene tfdB; homotetramer ~255 kDa, subunit ~65 kDa
Nature of the test: spectrophotometric NAD(P)H consumption at […] nm, uncompetitive substrate inhibition fit. It counts as biochemical, Cupriavidus sp. DSPFs. Conditions: 200 µM NADH; phosphate buffer 50 mM pH 7.5; 6.25 µM FAD; read-out: Km (μM) / I^a.

Test [3] addresses T1, 2,4-dichlorophenol-6-monooxygenase (24DCPM). The description is as above. It counts as biochemical, Cupriavidus sp. DSPFs. Particulars: substrate inhibition constant; 200 µM NADH; phosphate buffer 50 mM pH 7.5; 6.25 µM FAD.
The test system of test [4] is T1, 2,4-dichlorophenol-6-monooxygenase (24DCPM). The experiment in a line: spectrophotometric NAD(P)H consumption at […] nm, Michaelis-Menten fit. The format is biochemical, Cupriavidus sp. DSPFs. Conditions: 50 µM 2,4-dichlorophenol; phosphate buffer 50 mM pH 7.5; 6.25 µM FAD; read-out: Km (μM) / I^a.

Molecule “2,4-dichlorophenol-6-monooxygenase from Cupriavidus sp. strain DSPFs (enzyme)” returned a stoichiometry N in test [1] of 4.

`Oc1ccc(Cl)cc1Cl` [2,4-DCP, 2,4-dichlorophenol]: in test [2], the Km was found to be 3.1 ± 0.8 µM. Moreover, the “Ki (μM) / I” value in test [3] was 374 ± 80 µM. As for `NC(=O)C1=CN([C@@H]2O[C@H](COP(=O)(O)OP(=O)(O)OC[C@H]3O[C@@H](n4cnc5c(N)ncnc54)[C@H](O)[C@@H]3O)[C@@H](O)[C@H]2O)C=CC1` [NADH], the Km in test [4] turned out to be 205 ± 47 µM. `NC(=O)C1=CN([C@@H]2O[C@H](COP(=O)(O)OP(=O)(O)OC[C@H]3O[C@@H](n4cnc5c(N)ncnc54)[C@H](OP(=O)(O)O)[C@@H]3O)[C@@H](O)[C@H]2O)C=CC1` [NADPH]: the Km in test [4] was 46.8 ± 6 µM.
